Assay results reported in patent US20230250088A1, “COMPOUNDS AND COMPOSITIONS FOR TREATING CONDITIONS ASSOCIATED WITH STING ACTIVITY” (IFM Due, Inc., priority 2020, published 2023).
Several values for one entry are separate records, joined by “and”; a condition that tells them apart may be missing. Equal entries are not always repeated.

Each molecule was assayed against T1, hSTING (Homo sapiens, UniProt Q86WV6, G230A/H232R/R293Q/R71H) (assay: STING reporter assay (luciferase) in THP1-Dual KO-IFNAR2 cells activated with 2′3′cGAMP). Conditions: THP1-Dual KO-IFNAR2 cells; 2′3′cGAMP 15 μM final, Lipofectamine 2000; 24 h; luciferase reporter activity; read-out: hSTING EC50.
T1 construct: host or cells: THP1-Dual KO-IFNAR2 cells
T1 sequence (Q86WV6 whole entry R71H/G230A/H232R/R293Q): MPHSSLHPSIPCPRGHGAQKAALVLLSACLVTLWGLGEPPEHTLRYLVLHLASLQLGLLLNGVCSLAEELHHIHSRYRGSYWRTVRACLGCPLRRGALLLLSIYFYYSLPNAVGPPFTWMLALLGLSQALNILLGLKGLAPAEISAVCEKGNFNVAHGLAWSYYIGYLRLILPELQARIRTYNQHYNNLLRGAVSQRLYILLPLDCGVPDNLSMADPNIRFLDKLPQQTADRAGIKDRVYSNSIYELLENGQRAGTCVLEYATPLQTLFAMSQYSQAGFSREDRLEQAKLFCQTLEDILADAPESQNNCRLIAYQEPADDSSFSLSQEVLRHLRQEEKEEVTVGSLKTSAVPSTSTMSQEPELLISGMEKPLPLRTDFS
Format: cell-based
Experimental: STING pathway activation by the compounds described herein was measured using THP1-Dual™ cells (KO-IFNAR2).
THP1-Dual™ KO-IFNAR2 Cells (obtained from invivogen) were maintained in RPMI, 10% FCS, 5 ml P/S, 2 mM L-glut, 10 mM Hepes, and 1 mM sodium pyruvate. Compounds were spotted in empty 384 well tissue culture plates (Greiner 781182) by Echo for a final concentration of 0.0017-100 μM. Cells were plated into the TC plates at 40 μL per well, 2×10E6 cells/mL. For activation with STING ligand, 2′3′cGAMP (MW 718.38, obtained from Invivogen), was prepared in Optimem media.
The following solutions were prepared for each 1×384 plate: • Solution A: 2 mL Optimem with one of the following stimuli: • 60 μL of 10 mM 2′3′cGAMP→150 μM stock • Solution B: 2 mL Optimem with 60 μL Lipofectamine 2000→Incubate 5 min at RT
2 mL of solution A and 2 ml Solution B was mixed and incubated for 20 min at room temperature (RT). 20 μL of transfection solution (A+B) was added on top of the plated cells, with a final 2′3′cGAMP concentration of 15 μM. The plates were then centrifuged immediately at 340 g for 1 minute, after which they were incubated at 37° C., 5% CO2, >98% humidity for 24h. Luciferase reporter activity was then measured. EC50 values were calculated by using standard methods known in the art.
Luciferase reporter assay: 10 μL of supernatant from the assay was transferred to white 384-plate with flat bottom and squared wells. One pouch of QUANTI-Luc™ Plus was dissolved in 25 mL of water. 100 μL of QLC Stabilizer per 25 mL of QUANTI-Luc™ Plus solution was added. 50 μL of QUANTI-Luc™ Plus/QLC solution per well was then added. Luminescence was measured on a Platereader (e.g., Spectramax I3X (Molecular Devices GF3637001)).
Luciferase reporter activity was then measured. EC50 values were calculated by using standard methods known in the art.
With `CC(C)(C)OC(=O)N1CCc2c(C(=O)Nc3c[nH]c4cc(F)c(F)cc34)ncn2CC1` [Compound 117, tert-butyl 1-[(5,6-difluoro-1H-indol-3-yl)carbamoyl]-5H,6H,7H,8H,9H-imidazo[1,5-d][1,4]diazepine-7-carboxylate] the EC50 was 5000 to 100000 nM.
In the case of `O=C(Nc1c[nH]c2ccc(Cl)cc12)c1n[nH]c2c1CN(Cc1ccc(C(F)(F)F)cc1)C2` [Compound 142, N-(5-chloro-1H-indol-3-yl)-5-(4-(trifluoromethyl)benzyl)-1,4,5,6-tetrahydropyrrolo[3,4-c]pyrazole-3-carboxamide], the EC50 is reported as 200 to 1000 nM.
In the case of `Cc1ccc2c(C(=O)Nc3c[nH]c4cc(F)c(F)cc34)cnn2c1` [Compound 104], the EC50 is reported as 200 to 1000 nM.
`O=C(Nc1c[nH]c2cc(F)c(F)cc12)c1cnc2cc(C(F)(F)F)ccn12` [Compound 105] gave an EC50 of 1000 to 5000 nM.
Work on `O=C(Nc1c[nH]c2ccc(Cl)cc12)c1n[nH]c2cc(OCC(F)(F)F)ccc12` [Compound 149] yielded an EC50 of 40 to 200 nM.
`O=C(Nc1c[nH]c2cc(F)c(F)cc12)c1n[nH]c2cc(OC(F)(F)F)ccc12` [Compound 118] was tested, and the EC50 was 200 to 1000 nM.
`O=C(Nc1c[nH]c2cc(F)c(F)cc12)c1cccc2nn(Cc3ccc(C(F)(F)F)cc3)cc12` [Compound 121] gave an EC50 of 200 to 1000 nM.
`O=C(Nc1c[nH]c2cc(F)c(F)cc12)c1n[nH]c2cc(OCC(F)(F)F)ccc12` [Compound 125] showed an EC50 of 40 to 200 nM.
With `O=C(Nc1c[nH]c2cc(F)c(F)cc12)c1cccc2c1cnn2Cc1ccc(C(F)(F)F)cc1` [Compound 122] the EC50 was 200 to 1000 nM.
Work on `O=C(Nc1c[nH]c2cc(F)c(F)cc12)c1cc2cccnc2s1` [Compound 112, N-(5,6-difluoro-1H-indol-3-yl)thieno[2,3-b]pyridine-2-carboxamide] yielded an EC50 of 1000 to 5000 nM.
Work on `O=C(Nc1c[nH]c2ccc(Cl)cc12)c1n[nH]c2cc(N3CCN(CC(F)(F)F)CC3)ccc12` [Compound 144] yielded an EC50 of 40 to 200 nM.
For `O=C(Nc1c[nH]c2cc(F)c(F)cc12)c1n[nH]c2nc(N3CCC(F)(F)CC3)ccc12` [Compound 154], the EC50 was 200 to 1000 nM.
In the case of `O=C(Nc1c[nH]c2cc(F)c(F)cc12)c1c2ccccc2nn1CCC(F)(F)F` [Compound 102], the EC50 is reported as 5000 to 100000 nM.
Molecule `CC(C)(C)OC(=O)N1CCCn2nc(C(=O)Nc3c[nH]c4cc(F)c(F)cc34)cc2C1` [Compound 114, tert-butyl 2-[(5,6-difluoro-1H-indol-3-yl)carbamoyl]-4H,5H,6H,7H,8H-pyrazolo[1,5-a][1,4]diazepine-5-carboxylate] has an EC50 of 5000 to 100000 nM.
`O=C(Nc1c[nH]c2ccc(Cl)cc12)c1noc2cc(N3CCC(F)(F)CC3)ccc12` [Compound 147] was tested, and the EC50 was 40 to 200 nM.
In the case of `O=C(Nc1c[nH]c2cc(F)c(F)cc12)c1n[nH]c2nc(OCC(F)(F)F)ccc12` [Compound 129], the EC50 is reported as 200 to 1000 nM.
`O=C(Nc1c[nH]c2cc(F)c(F)cc12)c1cc2ccc(Cl)cn2n1` [Compound 116, 6-chloro-N-(5,6-difluoro-1H-indol-3-yl)pyrazolo[1,5-a]pyridine-2-carboxamide] was tested, and the EC50 was 200 to 1000 nM.
`O=C(Nc1c[nH]c2cc(F)c(F)cc12)c1n[nH]c2cc(NCC(F)(F)F)ccc12` [Compound 126] was tested, and the EC50 was 40 to 200 nM and 200 to 1000 nM.
For `O=C(Nc1c[nH]c2cc(F)c(F)cc12)c1cn2c(n1)CCC(C(F)(F)F)C2` (stereo not shown) [Compound 120, N-(5,6-difluoro-1H-indol-3-yl)-6-(trifluoromethyl)-5,6,7,8-tetrahydroimidazo[1,2-a]pyridine-2-carboxamide], the EC50 was 5000 to 100000 nM.
`Cn1nc2cc(C(F)(F)F)ccc2c1C(=O)Nc1c[nH]c2cc(F)c(F)cc12` [Compound 157] was tested, and the EC50 was 5000 to 100000 nM.
`CC(C)(C)OC(=O)N1CCc2c(C(=O)Nc3c[nH]c4cc(F)c(F)cc34)csc2C1` [Compound 109, tert-butyl 3-((5,6-difluoro-1H-indol-3-yl)carbamoyl)-4.5-dihydrothieno[2,3-c]pyridine-6(7H)-carboxylate] was tested, and the EC50 was 200 to 1000 nM.
Work on `O=C(Nc1c[nH]c2ccc(Cl)cc12)c1n[nH]c2cc(N3CCC(F)(F)CC3)ccc12` [Compound 146] yielded an EC50 of 40 to 200 nM.
`O=C(Nc1c[nH]c2cc(F)c(F)cc12)c1cn2cc(C(F)(F)F)ccc2n1` [Compound 113, N-(5,6-difluoro-1H-indol-3-yl)-6-(trifluoromethyl)imidazo[1,2-a]pyridine-2-carboxamide] showed an EC50 of 1000 to 5000 nM.
`O=C(Nc1c[nH]c2cc(F)c(F)cc12)c1n[nH]c2nc(N3CCC(F)(F)CC3)c(Cl)cc12` [Compound 152] gave an EC50 of 200 to 1000 nM.
Work on `O=C(Nc1c[nH]c2cc(F)c(F)cc12)c1cccc2nn(CCC(F)(F)F)cc12` [Compound 137] yielded an EC50 of 200 to 1000 nM.
`CC(C)(C)OC(=O)N1Cc2n[nH]c(C(=O)Nc3c[nH]c4cc(F)c(F)cc34)c2C1` [Compound 110, tert-butyl 3-((5,6-difluoro-1H-indol-3-yl)carbamoyl)-4,6-dihydropyrrolo[3,4-c]pyrazole-5(1H)-carboxylate] was tested, and the EC50 was 1000 to 5000 nM.
In the case of `O=C(Nc1c[nH]c2cc(F)c(F)cc12)c1n[nH]c2cc(OCC(F)(F)F)ncc12` [Compound 128], the EC50 is reported as 200 to 1000 nM.
For `O=C(Nc1c[nH]c2ccccc12)c1n[nH]c2cc(OCC(F)(F)F)ccc12` [Compound 148, N-(1H-indol-3-yl)-6-(2,2,2-trifluoroethoxy)-1H-indazole-3-carboxamide], the EC50 was 40 to 200 nM.
`CC(C)(C)OC(=O)N1CCn2nc(C(=O)Nc3c[nH]c4cc(F)c(F)cc34)cc2C1` [Compound 111, tert-butyl 2-[(5,6-difluoro-1H-indol-3-yl)carbamoyl]-4H,5H,6H,7H-pyrazolo[1,5-a]pyrazine-5-carboxylate] gave an EC50 of 1000 to 5000 nM.
Molecule `O=C(Nc1c[nH]c2cc(F)c(F)cc12)C1Cc2[nH]nc(C(F)(F)F)c2C1` (stereo not shown) [Compound 115, N-(5,6-difluoro-1H-indol-3-yl)-3-(trifluoromethyl)-1H,4H,5H,6H-cyclopenta[c]pyrazole-5-carboxamide] has an EC50 of 5000 to 100000 nM.
With `Cn1nc(C(=O)Nc2c[nH]c3cc(F)c(F)cc23)c2ccc(C(F)(F)F)cc21` [Compound 158] the EC50 was 200 to 1000 nM.
In the case of `O=C(Nc1c[nH]c2cc(F)c(F)cc12)c1n[nH]c2c1CN(CC(F)(F)F)C2` [Compound 151], the EC50 is reported as 5000 to 100000 nM.
Work on `O=C(Nc1c[nH]c2ccc(Cl)cc12)c1n[nH]c2cc(N3CCC(F)(F)CC3)ncc12` [Compound 143, N-(5-chloro-1H-indol-3-yl)-6-(4,4-difluoropiperidin-1-yl)-1H-pyrazolo[4,3-c]pyridine-3-carboxamide] yielded an EC50 of 5000 to 100000 nM.
`O=C(Nc1c[nH]c2cc(F)c(F)cc12)c1cnc2cc(OCC(F)(F)F)ccn12` [Compound 150] gave an EC50 of 40 to 200 nM.
`CC1(C)CCc2c(C(=O)Nc3c[nH]c4cc(F)c(F)cc34)n[nH]c2C1` [Compound 156] showed an EC50 of 1000 to 5000 nM.
For `O=C(Nc1c[nH]c2cc(F)c(F)cc12)c1ccc2c(c1)OCCCO2` [Compound 124, N-(5,6-difluoro-1H-indol-3-yl)-3,4-dihydro-2H-benzo[b][1,4]dioxepine-7-carboxamide], the EC50 was 200 to 1000 nM.
`O=C(Nc1c[nH]c2cc(F)c(F)cc12)c1cccc2c1cnn2CCC(F)(F)F` [Compound 138] was tested, and the EC50 was 1000 to 5000 nM.
For `Cc1nc(C(=O)Nc2c[nH]c3cc(F)c(F)cc23)c2ccc(C(F)(F)F)cn12` [Compound 134], the EC50 was 5000 to 100000 nM.
Work on `CCC1Cc2ccc(C(=O)Nc3c[nH]c4cc(F)c(F)cc34)cc2C1` (stereo not shown) [Compound 123] yielded an EC50 of 200 to 1000 nM.
In the case of `O=C(Nc1c[nH]c2cc(F)c(F)cc12)c1n[nH]c2cc(N3CCC(F)(F)CC3)ccc12` [Compound 155], the EC50 is reported as 40 to 200 nM.
Work on `O=C(Nc1c[nH]c2cc(F)c(F)cc12)c1c2ccccc2nn1Cc1ccc(C(F)(F)F)cc1` [Compound 101] yielded an EC50 of 1000 to 5000 nM.

Same assay, conditions: hSTING EC50, THP1-Dual KO-IFNAR2 cells; 2′3′cGAMP 15 μM final, Lipofectamine 2000; 24 h; luciferase reporter activity
In the case of `O=C(Nc1c[nH]c2cc(F)c(F)cc12)c1nn(Cc2ccc(C(F)(F)F)cc2)c2ccccc12` [Compound 106, N-(5,6-difluoro-1H-indol-3-yl)-1-[[4-(trifluoromethyl)phenyl]methyl]indazole-3-carboxamide], the EC50 is reported as 200 to 1000 nM.
`O=C(Nc1c[nH]c2cc(F)c(F)cc12)c1nn(CCC(F)(F)F)c2ccccc12` [Compound 103] showed an EC50 of 200 to 1000 nM.
